Test results taken from patent US8545834B2, “G-substrate for the treatment and prevention of parkinson's disease” (The McLean Hospital Corporation, priority 2007, dated 2013).

Experiments:
[1] = tested on: TH-positive neurons; experiment: Transduction of midbrain TH-positive neurons after intra-nigral lentivirus injection; format: in vivo, rat; conditions: naïve rats; compared to GFP-transduced rats
Method: A lentivirus encoding G-substrate (Lenti G-substrate) was stereotactically injected immediately dorsal to the substantia nigra in rats. The transduction efficiency of the lentivirus was then determined. Lenti G-substrate was transduced into TH-positive neurons to varying degrees depending upon the neuroanatomical level.
Rats received two 2.75 μl stereotaxic injections of either lenti-empty vector+lenti-eGFP (n=19), lenti-G substrate+lenti-eGFP (n=19), or lenti-YFP (n=14) and delivered at a rate of 0.2 μl/min using microinfusion pumps (Stoelting Co, Wood Dale, Ill.) with 10 min wait times after each injection. […]
Estimates of TH-positive neuronal number within the SN were performed using Stereo Investigator™ software (MBF Bioscience, Williston, Vt.) and stereologic principles (West et al., J. Comp. Neurol. 296: 1-22, 1990). […] For each tissue section analyzed, section thickness was assessed empirically and guard zones of 2 μm thickness were used at the top and bottom of each section. The SN was outlined under low magnification (2.5×) and approximately 50% of the outlined region was analyzed using a systematic random sampling design generated with the following stereologic parameters: grid size, 200×200 μm; counting frame size, 153×140 μm; and dissector height, 16 μm. […]

[2] = tested on: Akt, GSK3β; experiment: In vivo Akt and GSK3β phosphorylation, Western blot of substantia nigra and striata; set-up: species or system rat; conditions: rats
Method: The in vivo effect of G-substrate overexpression on Akt and GSK3β phosphorylation was investigated. Substantia nigra (FIG. 12R) and striata (FIG. 12T) of the control (empty vector) lentivirus and G-substrate injected were dissected and a Western blot analysis was performed.
Animals were deeply anesthetized with an i.p. injection sodium pentobarbital and were sacrificed by exsanguination with the aid of ice-cold saline perfusion. For immunohistochemistry, the brains were then fixed with a 4% paraformaldehyde solution. The brains were then removed from the skull and placed in fresh 4% paraformaldehyde solution for 1 h, and equilibrated through 20% and 30% sucrose solutions and refrigerated until cutting for immunohistochemistry. For immunoblotting, brains injected with lenti-empty vector+lenti-eGFP (n=10) or lenti-G substrate+lenti-eGFP (n=10) were rapidly removed after saline perfusion and sliced coronally using a tissue chopper set to 1 mm (Campden Instruments Ltd., Lafayette, Ind.). On an inverted glass Petri dish over ice, regions of interest (striatum and substantia nigra region) were dissected from the individual 1 mm tissue slices, frozen on dry ice, and stored at −80° C.
Cells and tissue samples were collected from and suspended in lysis buffer containing: 50 mM Tris-HCl, 0.15 M NaCl, 0.32 M sucrose, 1.0 mM EDTA, and 1% NP-40. In addition, phosphatase inhibitors I and II (1:100) and protease inhibitors (1:100) were added fresh prior to cell lysis (Sigma-Aldrich, P2850, P5276, and P8340 respectively). Following cell lysis, the homogenate was centrifuged, a portion of the supernatant was reserved for protein determination (BCA Assay, Pierce, Rockford, Ill.) and the remaining was stored at −20° C. 20 μg (in vitro cell preps) and 50 μg (tissue dissections) of solubilized protein were mixed 1:1 with sample buffer and boiled for 5 min. The samples and molecular weight standards were separated using the Criterion precast 10% SDS-polyacrylamide gel system (Bio-Rad, Hercules, Calif.). […]

[3] = G-substrate versus control lentivirus

## G-substrate: human wild type G-substrate (SEQ ID NO.: 1) overexpressed from a lentiviral vector
[1]
  total number of TH-positive neurons in midbrain: did not alter
[2]; substantia nigra and striata, compared to control lentivirus
  pAkt levels: 1.38 fold
[2]; [3]
  level of pGSK3β in the SN: unchanged
  level of pGSK3β in the striatum: modestly but significantly higher
